Broadly, the pIC50 is the IC50 on a negative log10 scale, so that one unit is a factor of ten. Read a low pIC50 as a large IC50.

We go through 11 compounds from patent US7105534B2, “Imidazo[1,2-α]pyridine ether compounds as ion channel modulators” (Cardiome Pharma Corp., priority 2000, dated 2006).

What all share (type): cell-based
The target in data set [1] is T1, hH1 Na+ current (Homo sapiens, UniProt Q14524).
T1 construct: expressed in transfected cells; host or cells: HEK cells, transient transfection, vector pCDNA3
In words: Patch-clamp inhibition of cloned ion channel current in transfected HEK cells: Na. As to conditions: peak hH1 Na+ current, -100 mV to -30 mV. How it is done:
(§1) The relevant cloned ion channels (e.g. cardiac hH1, Kv1.4, Kv1.5, Kv4.2, Kv2.1, HERG etc.) are studied by transient transfection into HEK cells using the mammalian expression vector pCDNA3. Transfections for each channel type are carried out separately to allow individual study of the ion channel of interest. Cells expressing channel protein are detected by cotransfecting cells with the vector pHook-1 (Invitrogen, San Diego, Calif., USA). […] Equal concentrations of individual channel and pHook DNA are incubated with 10× concentration of lipofectAce in Modified Eagle's Medium (MEM, Canadian Life Technologies) and incubated with parent HEK cells plated on 25 mm culture dishes. After 3–4 hours the solution is replaced with a standard culture medium plus 20% fetal bovine serum and 1% antimycotic. Transfected cells are maintained at 37C in an air/5% CO2 incubator in 25 mm Petri dishes plated on glass coverslips for 24–48 hours to allow channel expression to occur. 20 min prior to experiments, cells are treated with beads coated with phOX. After 15 min, excess beads are […] off with cell culture medium and cells which had beads stuck to them are used for electrophysiological tests.
(§2) For whole-cell recording the control pipette filling solution contained (in mM): KCl, 130; EGTA, 5; MgCl2, 1; HEPES, 10; Na2ATP, 4; GTP, 0.1; and is adjusted to pH 7.2 with KOH. The control bath solution contained (in mM): NaCl, 135; KCI, 5; sodium acetate, 2.8; MgCl2, 1; HEPES, 10; CaCl2, 1; and is adjusted to pH 7.4 with NaOH. The test ion channel modulating compound is dissolved to 10 mM stock solutions in water and used at concentrations between 0.5 and 100 μM.
(§3) Coverslips containing cells are removed from the incubator before experiments and placed in a superfusion chamber (volume 250 μl) containing the control bath solution at 22C to 23C. All recordings are made via the variations of the patch-clamp technique, using an Axopatch 200A amplifier (Axon Instruments, CA). Patch electrodes are pulled from thin-walled borosilicate glass (World Precision Instruments; FL) on a horizontal micropipette puller, fire-polished, and filled with appropriate solutions. Electrodes had resistances of […] when filled with control filling solution. Analog capacity compensation is used in all whole cell measurements. In some experiments, leak subtraction is applied to data. Membrane potentials have not been corrected for any junctional potentials that arose between the pipette and bath solution. Data are filtered at 5 to 10 kHz before digitization and stored on a microcomputer for later analysis using the pClamp6 software (Axon Instruments, Foster City, Calif.). Due to the high level of expression of channel cDNA's in HEK cells, there is no need for signal averaging. The average cell capacitance is quite small, and the absence of ionic current at negative membrane potentials allowed faithful leak subtraction of data.
(§4) The concentration-response curves for changes in peak and steady-state current produced by the test compound are computer-fitted to the Hill equation: f=1−1/[1+([…])^n] [1]
(§5) where f is the fractional current (f=Idrug/Icontrol) at drug concentration [D]; IC50 is the concentration producing half-maximal inhibition and n is the Hill coefficient.
(§6) Compounds of the present invention may be evaluated by this method. […] Block is determined from the decrease in peak hH1 Na^+ current, or in steady-state Kv1.5 and integrated Kv4.2 current in the presence of drug. To record Na^+ current, cells are depolarized from the holding potential of −100 mV to a voltage of −30 mV for 10 ms to fully open and inactivate the channel. To record Kv1.5 and Kv4.2 current, cells are depolarized from the holding potential of −80 mV to a voltage of +60 mV for 200 ms to fully open the channel. Currents are recorded in the steady-state at a range of drug concentrations during stimulation every 4 s. […]

In data set [2] the target is T2, Kv1.5 (Homo sapiens, UniProt P22460).
T2 construct: expressed in transfected cells; host or cells: HEK cells, transient transfection, vector pCDNA3
As to the kind of experiment: Patch-clamp inhibition of cloned ion channel current in transfected HEK cells: Kv1.5. The settings on record: steady-state current, -80 mV to +60 mV. As for the experimental part:
as §1, §2, §3, §4, §5, §6

The target of data set [3] is T3, Kv4.2 (Homo sapiens, UniProt Q9NZV8).
T3 construct: expressed in transfected cells; host or cells: HEK cells, transient transfection, vector pCDNA3
T3 sequence (Q9NZV8 1-630): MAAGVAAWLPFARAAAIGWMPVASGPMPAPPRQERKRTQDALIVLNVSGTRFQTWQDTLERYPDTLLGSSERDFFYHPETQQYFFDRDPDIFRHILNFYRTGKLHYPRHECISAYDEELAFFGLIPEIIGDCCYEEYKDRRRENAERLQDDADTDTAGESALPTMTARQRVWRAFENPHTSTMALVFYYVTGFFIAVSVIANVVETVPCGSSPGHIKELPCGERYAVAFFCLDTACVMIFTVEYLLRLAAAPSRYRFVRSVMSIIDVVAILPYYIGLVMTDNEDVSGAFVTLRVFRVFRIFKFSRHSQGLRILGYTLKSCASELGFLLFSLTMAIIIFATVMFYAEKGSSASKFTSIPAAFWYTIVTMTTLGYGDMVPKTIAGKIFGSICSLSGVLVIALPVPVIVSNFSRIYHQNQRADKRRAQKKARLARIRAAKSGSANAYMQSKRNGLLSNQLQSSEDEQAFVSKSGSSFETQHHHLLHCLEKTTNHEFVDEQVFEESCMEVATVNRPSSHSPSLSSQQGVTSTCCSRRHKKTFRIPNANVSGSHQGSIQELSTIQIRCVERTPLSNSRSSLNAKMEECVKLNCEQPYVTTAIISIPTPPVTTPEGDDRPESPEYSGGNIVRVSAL
As to the kind of experiment: Patch-clamp inhibition of cloned ion channel current in transfected HEK cells: Kv4.2. The settings on record: integrated current, -80 mV to +60 mV. As for the experimental part:
as §1, §2, §3, §4, §5, §6

The target in data set [4] is T4, HERG (Homo sapiens, UniProt Q12809).
T4 construct: expressed in transfected cells; host or cells: HEK cells, transient transfection, vector pCDNA3
As to the kind of experiment: Patch-clamp inhibition of cloned ion channel current in transfected HEK cells: HERG. As to conditions: whole-cell patch clamp. How it is done: as §1, §2, §3, §4, §5, §6
A general note: Patch clamp records ionic current or voltage across a cell membrane.

pIC50: −log10 of the molar value. Structures can show the parent of a compound that is named as a salt.

T1 sequence (Q14524 whole entry): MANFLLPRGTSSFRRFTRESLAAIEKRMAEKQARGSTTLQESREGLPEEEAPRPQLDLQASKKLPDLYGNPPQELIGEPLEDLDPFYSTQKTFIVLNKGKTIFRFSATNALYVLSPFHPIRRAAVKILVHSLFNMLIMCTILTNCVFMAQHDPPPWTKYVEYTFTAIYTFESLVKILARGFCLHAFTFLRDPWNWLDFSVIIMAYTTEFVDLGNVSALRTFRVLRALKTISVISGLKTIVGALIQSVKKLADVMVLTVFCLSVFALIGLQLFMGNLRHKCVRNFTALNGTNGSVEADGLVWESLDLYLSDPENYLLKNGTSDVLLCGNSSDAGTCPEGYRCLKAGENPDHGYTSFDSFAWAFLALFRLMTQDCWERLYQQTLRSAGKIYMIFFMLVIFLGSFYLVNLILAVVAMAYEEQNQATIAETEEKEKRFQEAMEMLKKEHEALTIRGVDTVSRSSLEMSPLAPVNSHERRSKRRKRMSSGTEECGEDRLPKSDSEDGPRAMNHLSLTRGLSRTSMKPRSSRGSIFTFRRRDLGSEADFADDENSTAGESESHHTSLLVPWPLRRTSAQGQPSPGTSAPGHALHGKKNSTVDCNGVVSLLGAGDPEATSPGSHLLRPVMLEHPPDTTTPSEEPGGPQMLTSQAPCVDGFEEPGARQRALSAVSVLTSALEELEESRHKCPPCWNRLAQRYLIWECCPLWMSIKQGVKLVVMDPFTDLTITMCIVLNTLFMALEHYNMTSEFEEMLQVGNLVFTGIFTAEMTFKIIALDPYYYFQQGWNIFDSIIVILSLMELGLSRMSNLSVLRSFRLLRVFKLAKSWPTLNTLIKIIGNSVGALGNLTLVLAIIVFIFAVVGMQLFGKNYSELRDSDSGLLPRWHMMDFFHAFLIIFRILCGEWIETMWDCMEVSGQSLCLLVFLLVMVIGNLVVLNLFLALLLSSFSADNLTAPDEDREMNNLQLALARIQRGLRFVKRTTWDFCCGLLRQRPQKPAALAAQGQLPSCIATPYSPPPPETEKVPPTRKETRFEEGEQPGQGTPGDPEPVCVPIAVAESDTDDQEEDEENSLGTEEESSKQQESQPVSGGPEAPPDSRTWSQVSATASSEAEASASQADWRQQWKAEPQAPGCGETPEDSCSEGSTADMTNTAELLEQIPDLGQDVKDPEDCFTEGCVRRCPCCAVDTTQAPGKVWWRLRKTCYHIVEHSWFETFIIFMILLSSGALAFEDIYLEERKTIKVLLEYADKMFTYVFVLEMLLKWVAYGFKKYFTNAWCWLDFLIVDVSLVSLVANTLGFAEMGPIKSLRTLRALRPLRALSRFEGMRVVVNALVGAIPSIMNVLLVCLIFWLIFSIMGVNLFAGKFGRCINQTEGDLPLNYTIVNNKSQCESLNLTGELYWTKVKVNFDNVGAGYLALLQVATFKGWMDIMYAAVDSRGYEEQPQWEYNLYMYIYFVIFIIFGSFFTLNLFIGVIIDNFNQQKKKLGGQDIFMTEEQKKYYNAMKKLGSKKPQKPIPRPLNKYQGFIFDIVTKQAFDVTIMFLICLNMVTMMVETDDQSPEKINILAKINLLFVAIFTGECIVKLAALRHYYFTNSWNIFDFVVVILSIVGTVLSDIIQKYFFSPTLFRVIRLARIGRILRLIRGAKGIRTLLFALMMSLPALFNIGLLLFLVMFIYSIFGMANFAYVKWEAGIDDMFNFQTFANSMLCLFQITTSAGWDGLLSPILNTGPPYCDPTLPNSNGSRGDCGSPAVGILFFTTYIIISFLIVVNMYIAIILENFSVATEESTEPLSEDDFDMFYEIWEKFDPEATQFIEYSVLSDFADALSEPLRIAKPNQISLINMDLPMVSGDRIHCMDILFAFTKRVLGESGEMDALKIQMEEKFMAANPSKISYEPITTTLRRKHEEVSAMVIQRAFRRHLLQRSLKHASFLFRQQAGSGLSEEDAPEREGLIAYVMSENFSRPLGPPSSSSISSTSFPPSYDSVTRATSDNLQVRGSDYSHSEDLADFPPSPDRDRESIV
T4 sequence (Q12809 whole entry): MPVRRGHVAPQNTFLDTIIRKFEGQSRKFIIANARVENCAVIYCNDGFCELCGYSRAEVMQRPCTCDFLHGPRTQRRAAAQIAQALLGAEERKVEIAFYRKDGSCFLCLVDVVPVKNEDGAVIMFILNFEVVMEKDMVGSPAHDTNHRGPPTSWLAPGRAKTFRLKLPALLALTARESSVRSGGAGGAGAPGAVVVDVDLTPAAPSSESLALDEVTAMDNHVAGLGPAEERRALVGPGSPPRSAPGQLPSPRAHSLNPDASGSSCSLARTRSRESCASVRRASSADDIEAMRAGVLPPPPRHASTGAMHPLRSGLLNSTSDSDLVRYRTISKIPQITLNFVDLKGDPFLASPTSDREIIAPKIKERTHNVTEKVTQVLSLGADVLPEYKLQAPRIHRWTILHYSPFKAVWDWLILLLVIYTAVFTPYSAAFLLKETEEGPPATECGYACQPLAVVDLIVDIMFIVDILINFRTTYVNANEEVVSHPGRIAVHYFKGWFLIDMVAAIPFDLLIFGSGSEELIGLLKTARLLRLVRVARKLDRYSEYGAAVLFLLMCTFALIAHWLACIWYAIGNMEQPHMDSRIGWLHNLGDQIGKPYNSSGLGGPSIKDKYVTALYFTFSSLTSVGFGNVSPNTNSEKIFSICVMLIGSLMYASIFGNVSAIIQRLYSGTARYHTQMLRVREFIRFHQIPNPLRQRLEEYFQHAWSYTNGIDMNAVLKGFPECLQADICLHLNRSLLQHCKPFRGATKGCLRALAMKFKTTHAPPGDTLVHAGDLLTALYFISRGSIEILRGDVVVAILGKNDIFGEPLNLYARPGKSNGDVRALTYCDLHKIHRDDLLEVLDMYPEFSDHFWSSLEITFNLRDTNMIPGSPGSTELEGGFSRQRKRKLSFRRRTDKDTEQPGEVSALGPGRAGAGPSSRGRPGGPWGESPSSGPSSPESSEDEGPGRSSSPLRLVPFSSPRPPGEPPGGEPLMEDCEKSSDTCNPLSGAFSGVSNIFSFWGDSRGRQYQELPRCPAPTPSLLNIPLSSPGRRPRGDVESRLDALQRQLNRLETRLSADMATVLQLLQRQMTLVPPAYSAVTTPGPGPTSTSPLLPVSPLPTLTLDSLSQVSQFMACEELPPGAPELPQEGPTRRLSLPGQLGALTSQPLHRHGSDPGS
T2 sequence (P22460 whole entry): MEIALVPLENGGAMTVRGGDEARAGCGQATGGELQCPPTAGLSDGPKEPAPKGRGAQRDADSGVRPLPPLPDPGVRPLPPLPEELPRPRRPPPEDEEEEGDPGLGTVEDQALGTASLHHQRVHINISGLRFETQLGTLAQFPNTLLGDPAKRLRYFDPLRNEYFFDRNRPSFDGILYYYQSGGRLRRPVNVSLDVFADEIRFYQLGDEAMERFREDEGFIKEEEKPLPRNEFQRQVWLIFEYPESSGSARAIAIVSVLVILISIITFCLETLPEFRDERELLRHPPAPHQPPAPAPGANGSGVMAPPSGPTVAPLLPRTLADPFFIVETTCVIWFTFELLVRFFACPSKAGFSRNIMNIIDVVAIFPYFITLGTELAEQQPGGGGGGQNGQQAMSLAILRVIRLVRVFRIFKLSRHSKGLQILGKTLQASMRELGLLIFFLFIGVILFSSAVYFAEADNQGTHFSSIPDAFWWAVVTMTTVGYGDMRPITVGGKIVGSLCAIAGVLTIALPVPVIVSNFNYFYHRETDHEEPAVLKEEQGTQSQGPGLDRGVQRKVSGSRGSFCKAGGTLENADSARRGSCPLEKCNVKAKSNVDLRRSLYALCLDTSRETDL

`Cc1cn2cccc(OCCCC3CCCCC3)c2n1` [Compound 9, 8-[(3-CYCLOHEXYL)PROPOXY]-2-METHYLIMIDAZO[1,2-α]PYRIDINE MONOHYDROCHLORIDE]: the pIC50 in data set [1] was 4.85; in data set [2] it was 6.00; in data set [3], 5.52; in data set [4] it was 7.30.
With `CCc1cn2cccc(OCCCc3ccc(Cl)cc3Cl)c2n1` [Compound 4, 8-[3-(2,4-DICHLOROPHENYL)PROPOXY]-2-ETHYLIMIDAZO[1,2-α]PYRIDINE MONOHYDROCHLORIDE], the pIC50 is 6.00 in data set [1], 7.00 in data set [2], 6.10 in data set [3] and 7.70 in data set [4].
The matching figures for `FC(F)(F)c1cn2cccc(OCCCc3ccc(Cl)cc3Cl)c2n1` [Compound 15, 8-[3-(2,4-DICHLOROPHENYL)PROPOXY]-2-(TRIFLUOROMETHYL)IMIDAZO[1,2-α]PYRIDINE MONOHYDROCHLORIDE]: 5.10, 7.00, 6.22 and 6.00.
As for `Clc1ccc(CCCOc2cccn3cc(-c4ccccc4)nc23)c(Cl)c1` [Compound 5, 8-[3-(2,4-DICHLOROPHENYL)PROPOXY]-2-PHENYLIMIDAZO[1,2-α]PYRIDINE MONOHYDROCHLORIDE], the pIC50 in data set [1] is 3.62; in data set [2] it was 3.77; in data set [3], 4.15; in data set [4], 6.05.
For `Cc1cn2cccc(OCCCOCc3ccccc3)c2n1` [Compound 11, 8-[3-BENZYLOXY-1-PROPOXY]-2-METHYLIMIDAZO[1,2-α]PYRIDINE MONOHYDROCHLORIDE], the pIC50 is 3.82 in data set [1], 4.96 in data set [2], 4.85 in data set [3] and 7.10 in data set [4].
Take `Cc1cn2cccc(OCc3ccc(Cl)cc3Cl)c2n1` [Compound 8, 8-[2,4-DICHLOROBENZYLOXY]-2-METHYLIMIDAZO[1,2-α]PYRIDINE MONOHYDROCHLORIDE]: the pIC50 in data set [1] is 2.92; in data set [2], 6.10; in data set [3], 4.96; in data set [4], 6.40.
Take `Cc1cn2cccc(OCC3(c4ccccc4)CC3)c2n1` [Compound 13, 2-METHYL-8-[(1-PHENYL-CYCLOPROPYL)METHOXY]IMIDAZO[1,2-α]PYRIDINE MONOHYDROCHLORIDE]: the pIC50 was 5.10 in data set [1], 6.15 in data set [2], 5.52 in data set [3] and 6.40 in data set [4].
The corresponding values for `Cc1cn2cccc(OCCCCCc3ccccc3)c2n1` [Compound 10, 2-METHYL-8-[5-PHENYL-1-PENTOXY]IMIDAZO[1,2-α]PYRIDINE MONOHYDROCHLORIDE] are 4.92, 6.10, 6.00 and 7.00.
Take `Cc1cn2cccc(OCCC(c3ccccc3)c3ccccc3)c2n1` [Compound 12, 8-[3,3-DIPHENYL-1-PROPOXY]-2-METHYLIMIDAZO[1,2-α]PYRIDINE MONOHYDROCHLORIDE]: the pIC50 in data set [1] is 5.52; in data set [2] it was 6.22; in data set [3] it was 6.00; in data set [4], 8.40.
In the case of `Cc1cn2cccc(OCCCc3c(Cl)cccc3Cl)c2n1` [Compound 6, 8-[3-(2,6-DICHLOROPHENYL)PROPOXY]-2-Methylimidazo[1,2-α]PYRIDINE MONOHYDROCHLORIDE], the pIC50 in data set [1] is 6.52; in data set [2], 6.10; in data set [3], 6.05; in data set [4], 6.52.
On to `Cc1cn2cccc(OCc3ccccc3C(F)(F)F)c2n1` [Compound 7, 2-METHYL-8-[2-(TRIFLUOROMETHYL)BENZYLOXY]IMIDAZO[1,2-α]PYRIDINE MONOHYDROCHLORIDE], for which the pIC50 in data set [1] was 4.82; in data set [2], 5.30; in data set [3] it was 5.00; in data set [4], 6.10.
